Reference: ChEMBL document CHEMBL3297657, “Synthesis and antitumor activities of novel α-aminophosphonate derivatives containing an alizarin moiety” (Eur J Med Chem, 2014)
The source made the active and inactive calls. The calls are words filed in the database; no cut-off is given here.

Legend:
[1] = test system: NCI-H460; test: Induction of apoptosis in human NCI-H460 cells assessed as late apoptotic cells after 24 hrs by Annexin V/propidium iodide staining-based flow cytometry; format: functional, cell-based
[2] = test system: NCI-H460; test: Cell cycle arrest in human NCI-H460 cells assessed as accumulation at S phase at 10 uM after 48 hrs by Rnase A/propidium iodide staining-based flow cytometry (reference value: 19.41%); format: functional
[3] = test system: NCI-H460; test: Induction of apoptosis in human NCI-H460 cells assessed as karyopyknosis and chromatin condensation at 8 uM after 12 to 48 hrs by Hoechst 33258 staining-based fluorescence microscopy relative to control; format: functional, cell-based
[4] = test system: NCI-H460; test: Cell cycle arrest in human NCI-H460 cells assessed as accumulation at G1 phase at 20 uM after 48 hrs by Rnase A/propidium iodide staining-based flow cytometry (reference value: 46.69%); format: functional
[5] = test system: NCI-H460; test: Induction of apoptosis in human NCI-H460 cells assessed as karyopyknosis and chromatin condensation after 24 hrs by Hoechst 33258 staining-based fluorescence microscopy relative to control; format: functional, cell-based
[6] = test system: NCI-H460; test: Induction of apoptosis in human NCI-H460 cells assessed as change in mitochondrial membrane potential at 5 to 20 uM after 24 hrs by JC-1 staining-based fluorescence microscopy relative to control; format: functional, cell-based
[7] = test system: NCI-H460; test: Induction of apoptosis in human NCI-H460 cells assessed as increase in intracellular calcium release at 5 to 20 uM after 24 hrs by Fluo-3/AM staining-based fluorescence microscopy; format: functional, cell-based
[8] = test system: NCI-H460; test: Induction of apoptosis in human NCI-H460 cells assessed as necrotic cells at 8 uM after 12 hrs by Annexin V/propidium iodide staining-based flow cytometry (reference value: 6.9%); format: functional
[9] = test system: HeLa; test: cells; details: Homo sapiens, 48 h
Description: Cytotoxicity against human HeLa cells after 48 hrs by MTT assay

[10] = test system: NCI-H460; test: Cell cycle arrest in human NCI-H460 cells assessed as accumulation at G1 phase at 8 uM after 12 hrs by Rnase A/propidium iodide staining-based flow cytometry (reference value: 46.69%); format: functional
[11] = test system: NCI-H460; test: Induction of apoptosis in human NCI-H460 cells assessed as viable cells at 20 uM after 24 hrs by Annexin V/propidium iodide staining-based flow cytometry (reference value: 72.2%); format: functional; details: NCI-H460, 24 h, read-out: Activity
[12] = test system: NCI-H460; test: Induction of apoptosis in human NCI-H460 cells assessed as viable cells at 5 uM after 24 hrs by Annexin V/propidium iodide staining-based flow cytometry (reference value: 72.2%); format: functional; details: NCI-H460, 24 h, read-out: Activity
[13] = test system: NCI-H460; test: Induction of apoptosis in human NCI-H460 cells assessed as necrotic cells at 20 uM after 24 hrs by Annexin V/propidium iodide staining-based flow cytometry (reference value: 6.9%); format: functional
[14] = test system: HCT-116; test: cells; details: Homo sapiens, HCT-116, 48 h
Description: Cytotoxicity against human HCT116 cells after 48 hrs by MTT assay

[15] = test system: NCI-H460; test: Cell cycle arrest in human NCI-H460 cells assessed as accumulation at S phase at 8 uM after 48 hrs by Rnase A/propidium iodide staining-based flow cytometry (reference value: 19.41%); format: functional
[16] = test system: NCI-H460; test: Induction of apoptosis in human NCI-H460 cells assessed as caspase-3 activation after 24 hrs by qRT-PCR analysis; format: functional, cell-based
[17] = test system: NCI-H460; test: Induction of apoptosis in human NCI-H460 cells assessed as necrotic cells at 8 uM after 48 hrs by Annexin V/propidium iodide staining-based flow cytometry (reference value: 6.9%); format: functional
[18] = test system: NCI-H460; test: Induction of apoptosis in human NCI-H460 cells assessed as early apoptotic cells at 5 to 20 uM after 24 hrs by Annexin V/propidium iodide staining-based flow cytometry relative to control; format: functional, cell-based
[19] = test system: NCI-H460; test: Induction of apoptosis in human NCI-H460 cells assessed as early apoptotic cells at 20 uM after 24 hrs by Annexin V/propidium iodide staining-based flow cytometry (reference value: 6.8%); format: functional
[20] = test system: NCI-H460; test: Cell cycle arrest in human NCI-H460 cells assessed as accumulation at G1 phase at 8 uM after 24 hrs by Rnase A/propidium iodide staining-based flow cytometry (reference value: 46.69%); format: functional
[21] = test system: NCI-H460; test: Induction of apoptosis in human NCI-H460 cells assessed as early apoptotic cells at 8 uM by Annexin V/propidium iodide staining-based flow cytometry; format: functional, cell-based; details: TDE = time-dependent effect
[22] = test system: NCI-H460; test: Induction of apoptosis in human NCI-H460 cells assessed as caspase-4 activation after 24 hrs by qRT-PCR analysis; format: functional, cell-based
[23] = test system: NCI-H460; test: Cell cycle arrest in human NCI-H460 cells assessed as accumulation at S phase at 8 uM after 12 hrs by Rnase A/propidium iodide staining-based flow cytometry (reference value: 19.41%); format: functional
[24] = test system: NCI-H460; test: Induction of apoptosis in human NCI-H460 cells assessed as late apoptotic cells at 8 uM after 48 hrs by Annexin V/propidium iodide staining-based flow cytometry (reference value: 14.1%); format: functional
[25] = test system: NCI-H460; test: Cell cycle arrest in human NCI-H460 cells assessed as accumulation at S phase at 5 uM after 48 hrs by Rnase A/propidium iodide staining-based flow cytometry (reference value: 19.41%); format: functional
[26] = test system: NCI-H460; test: Induction of apoptosis in human NCI-H460 cells assessed as viable cells at 8 uM after 24 hrs by Annexin V/propidium iodide staining-based flow cytometry (reference value: 72.2%); format: functional; details: NCI-H460, 24 h, read-out: Activity
[27] = test system: NCI-H460; test: Induction of apoptosis in human NCI-H460 cells assessed as necrotic cells after 24 hrs by Annexin V/propidium iodide staining-based flow cytometry; format: functional, cell-based
[28] = test system: NCI-H460; test: Induction of apoptosis in human NCI-H460 cells assessed as late apoptotic cells at 8 uM after 12 hrs by Annexin V/propidium iodide staining-based flow cytometry (reference value: 14.1%); format: functional
[29] = test system: NCI-H460; test: Induction of apoptosis in human NCI-H460 cells assessed as late apoptotic cells at 8 uM after 24 hrs by Annexin V/propidium iodide staining-based flow cytometry (reference value: 14.1%); format: functional
[30] = test system: HepG2; test: cells; details: Homo sapiens, HepG2, 48 h
Description: Cytotoxicity against human HepG2 cells after 48 hrs by MTT assay

[31] = test system: NCI-H460; test: Induction of apoptosis in human NCI-H460 cells assessed as early apoptotic cells at 5 uM after 24 hrs by Annexin V/propidium iodide staining-based flow cytometry (reference value: 6.8%); format: functional
[32] = test system: NCI-H460; test: Induction of apoptosis in human NCI-H460 cells assessed as upregulation of CAMK2 mRNA expression after 24 hrs by qRT-PCR analysis; format: functional, cell-based
[33] = test system: NCI-H460; test: Induction of apoptosis in human NCI-H460 cells assessed as viable cells at 10 uM after 24 hrs by Annexin V/propidium iodide staining-based flow cytometry (reference value: 72.2%); format: functional; details: NCI-H460, 24 h, read-out: Activity
[34] = test system: A549; test: cells; details: Homo sapiens, A549, 48 h
Description: Cytotoxicity against human A549 cells after 48 hrs by MTT assay

[35] = test system: NCI-H460; test: Induction of apoptosis in human NCI-H460 cells assessed as upregulation of cytochrome C mRNA expression after 24 hrs by qRT-PCR analysis; format: functional, cell-based
[36] = test system: NCI-H460; test: Induction of apoptosis in human NCI-H460 cells assessed as viable cells at 8 uM after 12 hrs by Annexin V/propidium iodide staining-based flow cytometry (reference value: 72.2%); format: functional; details: NCI-H460, 12 h, read-out: Activity
[37] = test system: NCI-H460; test: Induction of apoptosis in human NCI-H460 cells assessed as late apoptotic cells at 20 uM after 24 hrs by Annexin V/propidium iodide staining-based flow cytometry (reference value: 14.1%); format: functional

With `CCOP(=O)(OCC)C(NC(=O)C(C)Oc1ccc2c(c1O)C(=O)c1ccccc1C2=O)c1cccc2ccccc12` (stereo unspecified) the Activity [1] was “Dose-dependent effect”, the Activity [2] was 15.41% and the Activity [3] was “Active”. For the same compound, the Activity [4] was 61.6%, the Activity [5] was “Dose-dependent effect” and the Activity [6] was “Active”. The Activity [7] was “Active”, the Activity [8] was 0.9% and the IC50 [9] was 15 µM. It also gave an Activity [10] of 65.57%, a viability at 20 µM [11] of 43.4% and a viability at 5 µM [12] of 71.4%. It also gave an Activity [13] of 1.4%, an IC50 [14] of 40 µM and an Activity [15] of 0.41%. For the same compound, the Activity [16] was “Dose-dependent effect”, the Activity [17] was 3.7% and the Activity [18] was “Active”. For the same compound, the Activity [19] was 38.8%, the Activity [20] was 66.33% and the Activity [21] was “tde”. For the same compound, the Activity [22] was “Dose-dependent effect”, the Activity [23] was 0.11% and the Activity [24] was 14.8%. The Activity [25] was 17.02%, the viability at 8 µM [26] was 47.5% and the Activity [27] was “Dose-dependent effect”. It also gave an Activity [28] of 8.3%, an Activity [29] of 13.5% and an IC50 [30] of 40.5 µM. The Activity [31] was 10.9%, the Activity [32] was “Dose-dependent effect” and the viability at 10 µM [33] was 44.6%. The IC50 [34] was 15.9 µM, the Activity [35] was “Dose-dependent effect” and the viability at 8 µM [36] was 70.9%. For the same compound, the Activity [37] was 16.4%.
`CCOP(=O)(OCC)C(NC(=O)C(C)Oc1ccc2c(c1O)C(=O)c1ccccc1C2=O)c1ccccc1OC` (stereo unspecified) was tested, and the Activity [1] was “Dose-dependent effect”, the Activity [2] was 9.84% and the Activity [3] was “Active”. For the same compound, the Activity [4] was 65.1%, the Activity [5] was “Dose-dependent effect” and the Activity [6] was “Active”. The Activity [7] was “Active”, the Activity [8] was 0.7% and the IC50 [9] was 28.2 µM. It also gave an Activity [10] of 56.84%, a viability at 20 µM [11] of 30.7% and a viability at 5 µM [12] of 62.1%. For the same compound, the Activity [13] was 12.9%, the IC50 [14] was 10.5 µM and the Activity [15] was 8.87%. The Activity [16] was “Dose-dependent effect”, the Activity [17] was 3.2% and the Activity [18] was “Active”. The Activity [19] was 34.7%, the Activity [20] was 64.92% and the Activity [21] was “tde”. For the same compound, the Activity [22] was “Dose-dependent effect”, the Activity [23] was 15.62% and the Activity [24] was 18.2%. The Activity [25] was 8.74%, the viability at 8 µM [26] was 47.5% and the Activity [27] was “Dose-dependent effect”. The Activity [28] was 5.6%, the Activity [29] was 11.1% and the IC50 [30] was 88.2 µM. For the same compound, the Activity [31] was 26.6%, the Activity [32] was “Dose-dependent effect” and the viability at 10 µM [33] was 41.4%. For the same compound, the IC50 [34] was 12.3 µM, the Activity [35] was “Dose-dependent effect” and the viability at 8 µM [36] was 71.9%. For the same compound, the Activity [37] was 30.7%.
With `CCOP(=O)(OCC)C(NC(=O)C(C)Oc1ccc2c(c1O)C(=O)c1ccccc1C2=O)c1ccccc1F` (stereo unspecified) the Activity [1] was “Dose-dependent effect”, the Activity [2] was 13.42% and the Activity [3] was “Active”. For the same compound, the Activity [4] was 68.89%, the Activity [5] was “Dose-dependent effect” and the Activity [6] was “Active”. The Activity [7] was “Active”, the Activity [8] was 0.5% and the IC50 [9] was 21.1 µM. For the same compound, the Activity [10] was 55.78%, the viability at 20 µM [11] was 33.6% and the viability at 5 µM [12] was 61.6%. It also gave an Activity [13] of 1.4%, an IC50 [14] of 13.3 µM and an Activity [15] of 10.87%. For the same compound, the Activity [16] was “Dose-dependent effect”, the Activity [17] was 3.2% and the Activity [18] was “Active”. The Activity [19] was 55.1%, the Activity [20] was 60.05% and the Activity [21] was “tde”. For the same compound, the Activity [22] was “Dose-dependent effect”, the Activity [23] was 14.65% and the Activity [24] was 9.3%. The Activity [25] was 12.34%, the viability at 8 µM [26] was 46.3% and the Activity [27] was “Dose-dependent effect”. It also gave an Activity [28] of 7.9%, an Activity [29] of 13% and an IC50 [30] of 21 µM. The Activity [31] was 28.9%, the Activity [32] was “Dose-dependent effect” and the viability at 10 µM [33] was 36.2%. For the same compound, the IC50 [34] was 6.76 µM, the Activity [35] was “Dose-dependent effect” and the viability at 8 µM [36] was 61.3%. The Activity [37] was 9.8%.
